From patent US20250025443A1, “COMPOUNDS AND METHODS FOR TREATING CORONA VIRUSES” (CLEAR CREEK BIO, INC., priority 2021, published 2025)
pIC50: −log10 of the molar value.

Target: SARS-CoV-2 Papain-Like Protease (PLpro) (Severe acute respiratory syndrome coronavirus 2 (2019-nCoV) (SARS-CoV-2), UniProt P0DTD1)
Test: biochemical
Conditions: PLpro enzymatic fluorescence assay; class symbols; read-out: PLpro IC50

| SMILES | pIC50 |
| --- | --- |
| Cc1ccc(OC[C@@H]2CCN2)cc1C(=O)NC1(c2cc(-c3ncco3)cc3ncccc23)CC1 [Compound 694, (S)-5-(Azetidin-2-ylmethoxy)-2-methyl-N-(1-(7-(oxazol-2-yl)quinolin-5-yl)cyclopropyl)benzamide] | > 7.00 |
| Cc1ccc(NC2CN(C(=O)OC(C)(C)C)C2)cc1C(=O)NC1(c2cccc(-c3ccccc3)c2)CC1 [Compound 188, tert-Butyl 3-((3-((1-([1,1′-biphenyl]-3-yl)cyclopropyl)carbamoyl)-4-methylphenyl)amino)azetidine-1-carboxylate] | < 5.30 |
| Cc1ccc(-c2cc(C3(NC(=O)c4cc(OC[C@@H]5CCN5C)ccc4C)CC3)c3cccnc3c2)o1 [Compound 654, (S)-2-Methyl-5-((1-methylazetidin-2-yl)methoxy)-N-(1-(7-(5-methylfuran-2-yl)quinolin-5-yl)cyclopropyl)benzamide] | > 7.00 |
| Cc1ccc2c(C3(NC(=O)c4cc(OC[C@@H]5CCN5C)ccc4C)CC3)cc(N3CC(F)C3)cc2n1 [Compound 816, (S)—N-(1-(7-(3-Fluoroazetidin-1-yl)-2-methylquinolin-5-yl)cyclopropyl)-2-methyl-5-((1-methylazetidin-2-yl)methoxy)benzamide] | > 7.00 |
| CNCCOc1ccc(C)c(C(=O)NC2(c3cc(-c4ccn(C)n4)cc4ncccc34)CC2)c1 [Compound 647, 2-Methyl-N-(1-(7-(1-methyl-1H-pyrazol-3-yl)quinolin-5-yl)cyclopropyl)-5-(2-(methylamino)ethoxy)benzamide] | > 7.00 |
| Cc1ccc(OC[C@@H]2CCN2)cc1C(=O)NC1(c2cc(-c3ccc(F)cc3)cc3ncccc23)CC1 [Compound 675, (S)-5-(Azetidin-2-ylmethoxy)-N-(1-(7-(4-fluorophenyl)quinolin-5-yl)cyclopropyl)-2-methylbenzamide] | > 7.00 |
| COC1CN(c2cc(C3(NC(=O)c4cc(OC[C@@H]5CCN5C)ccc4C)CC3)c3ccc(C)nc3c2)C1 [Compound 811, (S)—N-(1-(7-(3-Methoxyazetidin-1-yl)-2-methylquinolin-5-yl)cyclopropyl)-2-methyl-5-((1-methylazetidin-2-yl)methoxy)benzamide] | > 7.00 |
| CC(c1cccc2ccccc12)N1CCc2ccc([N+](=O)[O-])cc2C1 (stereo not shown) [Compound 127, 2-(1-(Naphthalen-1-yl)ethyl)-7-nitro-1,2,3,4-tetrahydroisoquinoline] | < 5.30 |
| C#Cc1cc(C2(NC(=O)c3cc(OC[C@@H]4CCN4)ccc3C)CC2)c2cccnc2c1 [Compound 697, (S)-5-(Azetidin-2-ylmethoxy)-N-(1-(7-ethynylquinolin-5-yl)cyclopropyl)-2-methylbenzamide] | > 7.00 |
| [2H]C([2H])([2H])N1CC[C@H]1COc1ccc(C)c(C(=O)NC2(c3cc(OC)cc4ncccc34)CC2)c1 [Compound 732, (S)-N-(1-(7-Methoxyquinolin-5-yl)cyclopropyl)-2-methyl-5-((1-(methyl-d3)azetidin-2-yl)methoxy)benzamide] | > 7.00 |
| C=CCc1cc(C2(NC(=O)c3cc(OCC4CCN4C)ccc3C)CC2)c2ccccc2c1 (stereo not shown) [Compound 503, N-(1-(3-Allylnaphthalen-1-yl)cyclopropyl)-2-methyl-5-((1-methylazetidin-2-yl)methoxy)benzamide] | > 7.00 |
| Cc1ccc(OCC2CCN2C)cc1C(=O)NC1(c2cc(-c3ccc(F)cc3)cc3ccccc23)CC1 (stereo not shown) [Compound 518, N-(1-(3-(4-Fluorophenyl)naphthalen-1-yl)cyclopropyl)-2-methyl-5-((1-methylazetidin-2-yl)methoxy)benzamide] | > 7.00 |
| Cc1ncc(-c2cc(C3(NC(=O)c4cc(OC[C@@H]5CCN5C)ccc4C)CC3)c3cccnc3c2)s1 [Compound 764, (S)-2-Methyl-5-((1-methylazetidin-2-yl)methoxy)-N-(1-(7-(2-methylthiazol-5-yl)quinolin-5-yl)cyclopropyl)benzamide] | > 7.00 |

Same assay, conditions: SARS-CoV-2 PLpro enzymatic fluorescence assay; read-out: PLpro IC50

| SMILES | pIC50 |
| --- | --- |
| COc1cc(C2(NC(=O)c3cc(OCC4CCN4C)ccc3C)CC2)c2ccccc2c1 (stereo not shown) [Compound 384, N-(1-(3-methoxynaphthalen-1-yl)cyclopropyl)-2-methyl-5-((1-methylazetidin-2-yl)methoxy)benzamide] | > 7.00 |
| Cc1ccc(OCCN)cc1C(=O)NC1(c2cccc3ncccc23)CC1 [Compound 374, 5-(2-Aminoethoxy)-2-methyl-N-(1-(quinolin-5-yl)cyclopropyl)benzamide] | > 7.00 |
| Cc1ccc(OCC2CCN2C)cc1C(=O)NC1(c2cc(-c3cccs3)cc3ccccc23)CC1 (stereo not shown) [Compound 468, 2-Methyl-5-((1-methylazetidin-2-yl)methoxy)-N-(1-(3-(thiophen-2-yl)naphthalen-1-yl)cyclopropyl)benzamide] | > 7.00 |
| COc1cc(C2(NC(=O)c3cc(OC[C@@H]4CCCN4C)ccc3C)CC2)c2cccnc2c1 [Compound 528, (S)-N-(1-(7-Methoxyquinolin-5-yl)cyclopropyl)-2-methyl-5-((1-methylpyrrolidin-2-yl)methoxy)benzamide] | > 7.00 |
| Cc1ccc(OCCN2CCC(F)(F)CC2)cc1C(=O)NC1(c2cccc3ccccc23)CC1 [Compound 284, 5-(2-(4,4-Difluoropiperidin-1-yl)ethoxy)-2-methyl-N-(1-(naphthalen-1-yl)cyclopropyl)benzamide] | 6.00 to 7.00 |
| Cc1ccc(Nc2cn[nH]c2)cc1C(=O)N[C@H](C)c1cccc2ccccc12 [Compound 121, (R)-5-((1H-Pyrazol-4-yl)amino)-2-methyl-N-(1-(naphthalen-1-yl)ethyl)benzamide] | 5.30 to 6.00 |
| Cc1ccc(OCCN(C)C)cc1C(=O)NC1(c2ccc(OCc3ccccc3)cc2)CC1 [Compound 307, N-(1-(4-(Benzyloxy)phenyl)cyclopropyl)-5-(2-(dimethylamino)ethoxy)-2-methylbenzamide] | < 5.30 |
| Cc1cc2nc(C3CNC3)[nH]c2cc1C(=O)N[C@H](C)c1cccc2ccccc12 [Compound 131, (R)-2-(Azetidin-3-yl)-5-methyl-N-(1-(naphthalen-1-yl)ethyl)-1H-benzo[d]imidazole-6-carboxamide] | 5.30 to 6.00 |
| Cc1cc2ccn(CCN)c2cc1C(=O)NC1(c2cccc3ccccc23)CC1 [Compound 203, 1-(2-Aminoethyl)-5-methyl-N-(1-(naphthalen-1-yl)cyclopropyl)-1H-indole-6-carboxamide] | 6.00 to 7.00 |
| CNCCOc1ccc(C)c(C(=O)N[C@@H](c2cccc3ccccc23)C(F)(F)F)c1 [Compound 349, (S)-2-Methyl-5-(2-(methylamino)ethoxy)-N-(2,2,2-trifluoro-1-(naphthalen-1-yl)ethyl)benzamide] | 6.00 to 7.00 |
| Cc1cc(Br)c(OCCN(C)C)cc1C(=O)NC1(c2cccc3ccccc23)CC1 [Compound 369, 4-Bromo-5-(2-(dimethylamino)ethoxy)-2-methyl-N-(1-(naphthalen-1-yl)cyclopropyl)benzamide] | > 7.00 |
| Cc1ccc(OCCNCC2CC2)cc1C(=O)NC1(c2cccc3ccccc23)CC1 [Compound 361, 5-(2-((Cyclopropylmethyl)amino)ethoxy)-2-methyl-N-(1-(naphthalen-1-yl)cyclopropyl)benzamide] | > 7.00 |
| Cc1ccc(OC2CNC(C)(C)C2)cc1C(=O)NC1(c2cccc3ccccc23)CC1 (stereo not shown) [Compound 533, 5-((5,5-Dimethylpyrrolidin-3-yl)oxy)-2-methyl-N-(1-(naphthalen-1-yl)cyclopropyl)benzamide] | > 7.00 |
| Cc1ccc(OC2CCCNC2)cc1C(=O)NC1(c2cccc3ccccc23)CC1 (stereo not shown) [Compound 268, 2-Methyl-N-(1-(naphthalen-1-yl)cyclopropyl)-5-(piperidin-3-yloxy)benzamide] | 6.00 to 7.00 |
| Cc1cc2cc(CN3CCOCC3)[nH]c2cc1C(=O)NC1(c2cccc3ccccc23)CC1 [Compound 213, 5-Methyl-2-(morpholinomethyl)-N-(1-(naphthalen-1-yl)cyclopropyl)-1H-indole-6-carboxamide] | 5.30 to 6.00 |
| Cc1ccc(OCC(C)N)cc1C(=O)NC1(c2cc(-c3ccccc3)cc3ccccc23)CC1 (stereo not shown) [Compound 470, 5-(2-Aminopropoxy)-2-methyl-N-(1-(3-phenylnaphthalen-1-yl)cyclopropyl)benzamide] | > 7.00 |
| CC(=O)Nc1cc(C2(NC(=O)c3cc(OC[C@@H]4CCN4C)ccc3C)CC2)c2cccnc2c1 [Compound 744, (S)-N-(1-(7-Acetamidoquinolin-5-yl)cyclopropyl)-2-methyl-5-((1-methylazetidin-2-yl)methoxy)benzamide] | > 7.00 |
| Cc1ccc(OCC(N)Cc2ccccc2)cc1C(=O)NC1(c2cccc3ccccc23)CC1 (stereo not shown) [Compound 322, 5-(2-Amino-3-phenylpropoxy)-2-methyl-N-(1-(naphthalen-1-yl)cyclopropyl)benzamide] | > 7.00 |
| Cc1cc2nc(CN)[nH]c2cc1C(=O)N[C@H](C)c1cccc(-c2ccc(CN[C@H]3CC[C@@H](O)C3)s2)c1 [Compound 151, 2-(Aminomethyl)-N-((R)-1-(3-(5-((((1S,3R)-3-hydroxycyclopentyl)amino)methyl)thiophen-2-yl)phenyl)ethyl)-5-methyl-1H-benzo[d]imidazole-6-carboxamide] | 6.00 to 7.00 |
| Cc1cc(C2(NC(=O)c3cc(OC[C@@H]4CCN4C)ccc3C)CC2)c2cccnc2c1 [Compound 581, (S)-2-Methyl-5-((1-methylazetidin-2-yl)methoxy)-N-(1-(7-methylquinolin-5-yl)cyclopropyl)benzamide] | > 7.00 |
| COc1cc(C2(NC(=O)c3cc(OCCN(C)C)ccc3C)CC2)c2ccccc2c1 [Compound 320, 5-(2-(Dimethylamino)ethoxy)-N-(1-(3-methoxynaphthalen-1-yl)cyclopropyl)-2-methylbenzamide] | > 7.00 |
| Cc1cnc(OCCN(C)C)cc1C(=O)NC1(c2cccc3ccccc23)CC1 [Compound 366, 2-(2-(Dimethylamino)ethoxy)-5-methyl-N-(1-(naphthalen-1-yl)cyclopropyl) isonicotinamide] | 6.00 to 7.00 |
| C#CC(NC(=O)c1cc(N)ccc1C)c1cccc2ccccc12 (stereo not shown) [Compound 459, 5-Amino-2-methyl-N-(1-(naphthalen-1-yl)prop-2-yn-1-yl)benzamide] | < 5.30 |
| CON(C)C(=O)c1cc2cc(C)c(C(=O)NC3(c4cccc5ccccc45)CC3)cc2[nH]1 [Compound 225] | 6.00 to 7.00 |
